Patent US9139546B2, “Tri-aryl/heteroaromatic cannabinoids and use thereof” (priority 2007, dated 2015)

Columns and labels:
CXCL-8 = CXCL-8 level in supernatant of TNF-α treated A549 cells (multiplex bead immunoassay); assay type: cell-based, human; conditions: A549, 10 ng/mL TNF-α, 18 hours
Experimental: (§1) Human lung adenocarcinoma cell line A549 (alveolar type II epithelial-like) cells (ATCC, Manassas, Va.) were maintained in growth media consisting of DMEM supplemented with 10% heat-inactivated fetal calf serum, 2 mM L-glutamine, 100 U/ml penicillin, and 100 μg/ml streptomycin.
(§2) One day prior to treatment, A549 cells were seeded in 24 well culture plates at 6×10^4 cells/well in 1 mL of DMEM containing 1% FCS. On the day of treatment, media was aspirated. Following PBS wash, 1 mL of media containing 1% FCS, 10 ng/mL TNF-α, and varying concentrations of test compounds was added. Samples were collected at 18 hours and immediately transferred to −80° C. until the day of analysis.
(§3) Levels of IL-6 and CXCL-8 were measured in cell culture supernatant using the Multiplex Bead Immunoassay Kit (Biosource, Camarillo, Calif.) paired with the Luminex® 200™ System. Standard solutions were prepared by serial dilution in a 50% media, 50% buffer solution so that they were in the same matrix as the samples. Standards and samples were mixed with a solution containing beads coated with capture antibodies specific for IL-6 and CXCL-8. Each capture antibody is bound to a specific bead population with a known internal fluorescence. The Luminex system can differentiate between internal fluorescence of beads allowing detection of multiple analytes in the same well. Following overnight incubation to allow complexation of protein with capture antibodies, wells were washed and beads resuspended in assay buffer. Biotinylated reporter antibodies specific for IL-6 and CXCL-8 were added and incubated for 1.5 hours. Unbound antibodies were removed by washing, and Streptavidin-Phycoerythrin (PE) was added and incubated 30 minutes. Streptavidin binds to biotin on the reporter antibodies. Unbound reagents were removed and samples were analyzed by the Luminex system. This system utilizes a flow cytometry system and lasers capable of exciting the internal dyes of the beads and PE. The machine separates signals from beads with different internal fluorescence and measures fluorescence intensity from PE bound to these beads through protein-antibody interactions. This fluorescence intensity is reported as the median of 100 beads per cytokine in each well. Concentrations were interpolated by fitting fluorescence intensity from unknowns to the standard curves.
(§4) Cells treated with the pro-inflammatory cytokine TNF-α increase production of IL-6 and CXCL-8 when compared to cells not treated with TNF-α. Cells treated with anti-inflammatory compounds block the inflammatory effect of TNF-α and produce IL-6 and CXCL-8 levels similar to cells that are not treated with TNF-α.

human CB2 receptor = human CB2 receptor (Homo sapiens (Human), UniProt P34972); assay: Receptor binding assay, CB2 ([3H]CP 55,940 displacement); conditions: for Ki: as repeated in the anti-inflammatory table, read-out: CB-2 Ki; for CB1/CB2: ratio of Ki CB-1 to Ki CB-2
Experimental: (§5) The assays were carried out in 96 well plates obtained from Millipore, Inc. fitted with glass fiber filters (hydrophilic, GFC filters) having a pore size of 1.2μ. The filters were soaked with 0.05% polyethyleneimine solution and washed 5× with deionized water prior to carrying out the assays. The filtrations were carried out on a 96 well vacuum manifold (Millipore Inc.), the filters punched out with a pipette tip directly into scintillation vials at the end of the experiment and vials filled with 5 ml scintillation cocktail Ecolite (+) (Fisher Scientific). Counting was carried out on a Beckmann Scintillation Counter model LS6500. Drug solutions were prepared in DMSO and the radioligand was dissolved in ethanol.
(§6) 50 mM TRIS-HCl, 5 mM MgCl2, 2.5 mM EDTA, 0.5 mg/ml fatty acid free bovine serum albumin, pH 7.4.
(§7) The membranes were filtered and the filters washed 7× with 0.2 ml ice-cold incubation buffer and allowed to air dry under vacuum.
(§8) Final data are presented as Ki±S.E.M. of n≧3 experiments.

human CB1 receptor = human CB1 receptor (Homo sapiens (Human), UniProt P21554); assay: Receptor binding assay, CB1 ([3H]CP 55,940 displacement); conditions: as repeated in the anti-inflammatory table; read-out: CB-1 Ki
Experimental: as §5, §6, §7, §8

CCL-2 = CCL-2 reduction in TNF-α treated A549 cells; assay type: cell-based, human; conditions: A549, 10 ng/mL TNF-α
NF-κB = NF-κB SEAP reporter assay in TNF-α treated A549 cells; assay type: cell-based; conditions: Homo sapiens, read-out: NF-κB Reduction; for inhibition at 0.1 µM: A549, 18 h
Experimental: as §1
The plasmid pNF-κB-SEAP-NPT was kindly provided by Dr. Y. S. Kim of the Seoul National University. This plasmid contains a secreted alkaline phosphatase (SEAP) reporter gene coupled with the κB response element. Upon activation, NF-κB translocates to the nucleus and binds to the κB response element causing transcriptional activation. This activation drives production of the SEAP reporter, which is secreted into the cell culture supernatant where it can be measured. The neomycin phosphotransferase (NPT) region of the plasmid provides resistance to the antibiotic G-418.
A549 cells were stably transfected with pNF-κB-SEAP-NPT using GeneJammer Transfection Reagent (Stratagene, La Jolla, Calif.) per manufacturer's protocol. G-418 (500 μg/ml) was added 24 hrs after transfection to select for stable transfection of NF-κB. Resistant colonies were selected and maintained in growth media supplemented with 500 μg/ml G-418.
Previous experiments have shown A549 cells respond to the pro-inflammatory cytokine TNF-α by activation of the pro-inflammatory transcription factor, NF-κB. This effect is dose dependent with the maximum effect seen at 10 ng/mL TNF-α. Compounds with anti-inflammatory activity can be used to inhibit this activation of NF-κB.
One day prior to treatment, transfected cells were seeded in 24 well culture plates at 6×10^4 cells/well in 1 mL of DMEM containing 1% FCS. On the day of treatment, media was aspirated. Following PBS wash, 1 mL of media containing 1% FCS, 10 ng/mL TNF-α, and varying concentrations of test compounds was added. Cell culture supernatant was collected at 18 hours. SEAP production was measured in 50 μL of supernatant using the Great EscAPe™ chemiluminescence kit (Clontech, Mountain View, Calif.). Briefly, samples were incubated at 65° C. for 30 minutes to inactivate endogenous alkaline phosphate. Following a 5-minute equilibration with assay buffer, chemiluminescent substrate and enhancer was added. Chemiluminescence was measured after 10 minutes. Higher levels of chemiluminescence result from increased SEAP production and correspond to NF-κB activity. Compounds capable of inhibiting NF-κB activation due to TNF-α are determined by a reduction in chemiluminescence values when cells are treated with TNF-α and test compound versus cells treated with TNF-α alone.

[1] = tested on: DU-145 prostate cancer cells; assay: Anti-cancer activity, WST-8 cell viability, DU-145; assay type: cell-based; conditions: Homo sapiens, DU-145, 18 h, read-out: DU-145 prostate EC50 (μM)
Experimental: (§9) A representative group of compounds (shown below) was tested for anti-cancer activity against human lung (DMS-135 and H69AR), prostate (DU-145), colorectal (HCT-15), and pancreatic (BxPC-3) cancer cell lines using the methodology described below, providing results shown in Table 3.
(§10) Human cancer cells DU-145, DMS-135, H69AR, HCT-15, and BxPC-3 (American Type Culture Collection, ATCC) were cultured in supplemented media according to the recommendations of the supplier. Cells lines were plated in 96-well flat-bottom plates at 70% confluency in a 100 μl total volume of supplemented media as indicated, and incubated overnight at 37° C. to allow for adherence. The cultures were inoculated with escalating amounts of drug and cell death was analyzed at 18 hours, using the BioTek Synergy 2 Multidetection Microplate Reader. The percentage of viable cells present in the culture at each time point was calculated by comparing the absorbance value at 450 nm from the WST-8 assay (Pojindo Molecular Technologies) for each condition with untreated control cells.

[2] = tested on: HCT-15 colorectal cancer cells; assay: Anti-cancer activity, WST-8 cell viability, HCT-15; assay type: cell-based; conditions: Homo sapiens, HCT-15, 18 h, read-out: HCT-15 colorectal EC50 (μM)
Experimental: as §9, §10

H69AR lung cancer cells = assay: Anti-cancer activity, WST-8 cell viability, H69AR; assay type: cell-based; conditions: Homo sapiens, 18 h, read-out: H69AR lung EC50 (μM)
Experimental: as §9, §10

[3] = tested on: DMS-135 lung cancer cells; assay: Anti-cancer activity, WST-8 cell viability, DMS-135; assay type: cell-based; conditions: Homo sapiens, 18 h, read-out: DMS-135 lung EC50 (μM)
Experimental: as §9, §10

[4] = tested on: BxPC-3 pancreatic cancer cells; assay: Anti-cancer activity, WST-8 cell viability, BxPC-3; assay type: cell-based; conditions: Homo sapiens, BXPC-3, 18 h, read-out: BxPC-3 pancreatic EC50 (μM)
Experimental: as §9, §10

IL-6 = IL-6 level in supernatant of TNF-α treated A549 cells (multiplex bead immunoassay); assay type: cell-based, human; conditions: 100 nM compound; A549, 10 ng/mL TNF-α, 18 hours
Experimental: as §1, §2, §3, §4

Chain of human CB1 receptor (P21554 whole entry): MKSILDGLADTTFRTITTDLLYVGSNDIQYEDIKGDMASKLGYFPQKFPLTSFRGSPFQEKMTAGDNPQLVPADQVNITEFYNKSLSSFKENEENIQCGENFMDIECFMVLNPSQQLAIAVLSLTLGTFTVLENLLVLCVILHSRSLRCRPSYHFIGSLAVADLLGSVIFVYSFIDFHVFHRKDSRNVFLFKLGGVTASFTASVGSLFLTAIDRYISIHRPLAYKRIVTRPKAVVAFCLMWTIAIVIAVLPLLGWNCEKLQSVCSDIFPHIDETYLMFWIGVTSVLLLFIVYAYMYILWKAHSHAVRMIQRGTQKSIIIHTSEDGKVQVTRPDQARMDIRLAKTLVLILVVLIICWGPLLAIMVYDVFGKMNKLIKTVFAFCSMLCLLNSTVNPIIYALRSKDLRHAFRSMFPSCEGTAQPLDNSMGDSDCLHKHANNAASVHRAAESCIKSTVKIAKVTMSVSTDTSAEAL

Row | SMILES | CXCL-8 Reduction (CXCL-8; 100 nM compound) [%] | Ki (human CB2 receptor) [nM] | CB1/CB2 (human CB2 receptor) | Ki (human CB1 receptor) [nM] | CCL-2 Reduction (CCL-2; 100 nM compound) [%] | inhibition at 0.1 µM (NF-κB) [%] | CXCL-8 Reduction (CXCL-8; 1 nM compound) [%] | CXCL-8 Reduction (CXCL-8; 10 nM compound) [%] | CCL-2 Reduction (CCL-2; 10 nM compound) [%] | inhibition at 0.001 µM (NF-κB; 1 nM compound, A549, 10 ng/mL TNF-α, 18 hours) [%] | inhibition at 0.01 µM (NF-κB; 10 nM compound, A549, 10 ng/mL TNF-α, 18 hours) [%] | EC50 [1] [µM] | EC50 [2] [µM] | EC50 (H69AR lung cancer cells) [µM] | EC50 [3] [µM] | EC50 [4] [µM] | IL-6 Reduction (IL-6) [%]
1 | Cc1cccc(-c2c(O)cc(C(=O)c3ccccc3)cc2O)c1 [Compound 26, (2,6-Dihydroxy-3′-methyl-biphenyl-4-yl)-phenyl-methanone] | 59 ± 5 | 159 ± 2.92 | 6.18 | 983 | 61 ± 19 | 67 ± 9 | – | – | – | – | – | – | – | – | – | – | –
2 | COc1cc(C(=O)c2ccccc2)cc(O)c1-c1cccc(C)c1 [Compound 27, (2-Hydroxy-6-methoxy-3′-methyl-biphenyl-4-yl)-phenyl-methanone] | – | 225 | 4.44 | > 1000 | – | – | 50 | 27 ± 15 | 32 ± 9 | 45 | 38 ± 10 | – | – | – | – | – | –
3 | COc1cc(C(=O)c2ccccc2)cc(O)c1-c1cc(Cl)cc(Cl)c1 [Compound 29, (3′,5′-dichloro-2-hydroxy-6-methoxybiphenyl-4-yl)(phenyl)methanone] | <10 | 4.77 | 209 | > 1000 | – | 50 | – | – | – | – | – | 1.5 | 2.9 | 1.3 | 2.8 | 9.3 | <5
